This test deals with RAC-beta serine/threonine-protein kinase (Homo sapiens, UniProt P31751). The test can be described thus: Inhibition of PKBbeta (unknown origin).

Our source for the IC50 values is BindingDB's records for doi:10.1016/j.ejmech.2019.01.017 (Qilu University of Technology (Shandong Academy of Sciences), 2019).

Chain of RAC-beta serine/threonine-protein kinase (P31751 whole entry): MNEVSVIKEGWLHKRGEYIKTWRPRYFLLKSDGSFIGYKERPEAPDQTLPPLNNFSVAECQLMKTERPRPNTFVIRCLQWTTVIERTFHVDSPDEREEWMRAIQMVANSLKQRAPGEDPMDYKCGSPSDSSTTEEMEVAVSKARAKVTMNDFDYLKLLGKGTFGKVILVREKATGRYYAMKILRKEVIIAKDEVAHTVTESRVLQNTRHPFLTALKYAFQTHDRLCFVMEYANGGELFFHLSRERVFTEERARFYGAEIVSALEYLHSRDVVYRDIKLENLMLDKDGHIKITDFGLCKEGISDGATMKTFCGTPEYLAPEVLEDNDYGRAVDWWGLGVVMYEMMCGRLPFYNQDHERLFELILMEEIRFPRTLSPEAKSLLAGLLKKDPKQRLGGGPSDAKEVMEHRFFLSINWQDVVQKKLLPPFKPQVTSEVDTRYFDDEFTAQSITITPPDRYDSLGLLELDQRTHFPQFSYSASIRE

Usually IC50 stands for the midpoint of a concentration-inhibition curve. Molecule `Cc1ccc2[nH]c(=O)c(C(=O)/C=C/c3nc4ccccc4[nH]3)c(-c3ccccc3)c2c1` had an IC50 of 1640 nM.
